The source made the active and inactive calls. The rule behind the calls is not given here.
What was measured:
A-375 [1] = assay: Induction of cell cycle arrest in human A-375 cells assessed as accumulation at G2/M phase at 6 uM incubated for 24 hrs by PI staining based flow cytometry analysis (reference value: 1.48 %); type: functional
A-375 [2] = assay: Upregulation of p53 accumulation in human A-375 cells at 6 to 8 uM measured after 12 to 24 hrs by western blot assay; type: functional, cell-based; conditions: dose 6-8 µM, time 12-24 hrs
A-375 [3] = assay: Downregulation of CDK4 protein expression in human A-375 cells at 6 to 8 uM measured after 12 to 24 hrs by western blot assay; type: functional, cell-based; conditions: dose 6-8 µM, time 12-24 hrs
A-375 [4] = assay: Induction of apoptosis in human A-375 cells assessed as nuclear membrane lysis at 6 to 8 uM incubated for 24 hrs by Hoechst 33258 staining based fluorescence microscopy; type: functional, cell-based; conditions: dose 6-8 µM
A-375 [5] = assay: Induction of apoptosis in human A-375 cells assessed as […] of Bax/Bcl-2 protein level at 6 to 8 uM incubated for 24 hrs by Western blot analysis; type: functional, cell-based; conditions: dose 6-8 µM
A-375 [6] = assay: Induction of cell cycle arrest in human A-375 cells assessed as accumulation at G2/M phase at 8 uM incubated for 24 hrs by PI staining based flow cytometry analysis (reference value: 1.48 %); type: functional
B16 [7] = assay: Induction of cell cycle arrest in mouse B16 cells assessed as accumulation at G0/G1 phase at 7 uM incubated for 24 hrs by PI staining based flow cytometry analysis (reference value: 61.83 %); type: functional
B16 [8] = assay: Induction of cell cycle arrest in mouse B16 cells assessed as accumulation at S phase incubated for 24 hrs by PI staining based flow cytometry analysis (reference value: 42.53 %); type: functional
A-375 [9] = assay: Induction of apoptosis in human A-375 cells assessed as cytoplasmic shrinkage at 6 to 8 uM incubated for 24 hrs by Hoechst 33258 staining based fluorescence microscopy; type: functional, cell-based; conditions: dose 6-8 µM
A-375 [10] = assay: Induction of apoptosis in human A-375 cells assessed as chromatin condensation at 6 to 8 uM incubated for 24 hrs by Hoechst 33258 staining based fluorescence microscopy; type: functional, cell-based; conditions: dose 6-8 µM
A-375 [11] = assay: Induction of apoptosis in human A-375 cells assessed as late apoptotic cells after 24 hrs by Annexin-V-FITC/PI-staining based flow cytometry (reference value: 5.7 %); type: functional
A-375 [12] = assay: Downregulation of Cyclin D1 protein expression in human A-375 cells at 6 to 8 uM measured after 12 to 24 hrs by western blot assay; type: functional, cell-based; conditions: dose 6-8 µM, time 12-24 hrs
A-375 [13] = assay: Induction of cell cycle arrest in human A-375 cells assessed as accumulation at S phase at 8 uM incubated for 24 hrs by PI staining based flow cytometry analysis (reference value: 28.83 %); type: functional
B16 [14] = assay: Induction of apoptosis in mouse B16 cells assessed as cytoplasmic shrinkage at 5 to 7 uM incubated for 24 hrs by Hoechst 33258 staining based fluorescence microscopy; type: functional, cell-based; conditions: dose 5-7 µM
B16 [15] = assay: Induction of apoptosis in mouse B16 cells assessed as late apoptotic cells preincubated for 2 hrs with […] followed by compound addition and measured after 24 hrs by Annexin-V-FITC/PI-staining based flow cytometry (reference value: 5.7 %); type: functional
A-375 [16] = assay: Induction of apoptosis in human A-375 cells assessed as […] of Bax/Mcl-1 protein level at 6 to 8 uM incubated for 24 hrs by Western blot analysis; type: functional, cell-based; conditions: dose 6-8 µM
B16 [17] = assay: Induction of apoptosis in mouse B16 cells assessed as late apoptotic cells preincubated for 2 hrs with 3-MA followed by compound addition and measured after 24 hrs by Annexin-V-FITC/PI-staining based flow cytometry (reference value: 5.7 %); type: functional
A-375 [18] = assay: Induction of cell cycle arrest in human A-375 cells assessed as accumulation at S phase incubated for 24 hrs in presence of AG490 by PI staining based flow cytometry analysis (reference value: 34.44 %); type: functional
A-375 [19] = assay: Induction of apoptosis in human A-375 cells assessed as early apoptotic cells at 6 uM after 24 hrs by Annexin-V-FITC/PI-staining based flow cytometry (reference value: 1.4 %); type: functional
B16 [20] = assay: Induction of apoptosis in mouse B16 cells assessed as late apoptotic cells measured after 24 hrs by Annexin-V-FITC/PI-staining based flow cytometry (reference value: 5.7 %); type: functional
A-375 [21] = assay: Induction of autophagy in human A-375 cells assessed as increase in LC3-II expression at 7 uM incubated for 6 to 24 hrs by […]; type: functional, cell-based; conditions: time 6-24 hrs
A-375 [22] = assay: Induction of cell cycle arrest in human A-375 cells assessed as accumulation at G2/M phase at 7 uM incubated for 24 hrs by PI staining based flow cytometry analysis (reference value: 1.48 %); type: functional
B16 [23] = assay: Induction of apoptosis in mouse B16 cells assessed as early apoptotic cells measured after 24 hrs by Annexin-V-FITC/PI-staining based flow cytometry (reference value: 0.9 %); type: functional
A-375 [24] = assay: Induction of cell cycle arrest in human A-375 cells assessed as accumulation at S phase at 7 uM incubated for 24 hrs by PI staining based flow cytometry analysis (reference value: 28.83 %); type: functional
A-375 [25] = assay: Induction of cell cycle arrest in human A-375 cells assessed as accumulation at G0/G1 phase at 8 uM incubated for 24 hrs by PI staining based flow cytometry analysis (reference value: 69.68 %); type: functional
B16 [26] = assay: Induction of apoptosis in mouse B16 cells assessed as early apoptotic cells at 7 uM measured after 24 hrs by Annexin-V-FITC/PI-staining based flow cytometry (reference value: 0.5 %); type: functional

SMILES: COc1ccc2cc1Oc1ccc(cc1)C[C@H]1c3cc(c(OC)cc3CCN1C)Oc1c(OC)c(OC)c(OC)c3c1[C@H](C2)N(C)CC3 [HERNANDEZINE]
- Activity (A-375 [1]): 1.43%
- Activity (A-375 [2]): Active
- Activity (A-375 [3]): Active
- Activity (A-375 [4]): Active
- Activity (A-375 [5]): Active
- Activity (A-375 [6]): 1.24%
- Activity (B16 [7]): 76.38%
- Activity (B16 [8]): 12.63%
- Activity (A-375 [9]): Active
- Activity (A-375 [10]): Active
- Activity (A-375 [11]): 48.1%
- Activity (A-375 [12]): Active
- Activity (A-375 [13]): 19.2%
- Activity (B16 [14]): Active
- Activity (B16 [15]): 16%
- Activity (A-375 [16]): Active
- Activity (B16 [17]): 14.5%
- Activity (A-375 [18]): 24.36%
- Activity (A-375 [19]): 4.1%
- Activity (B16 [20]): 20.6%
- Activity (A-375 [21]): Active
- Activity (A-375 [22]): 6.77%
- Activity (B16 [23]): 25.6%
- Activity (A-375 [24]): 22.36%
- Activity (A-375 [25]): 79.56%
- Activity (B16 [26]): 16.4%

— ChEMBL document CHEMBL5120867, “Hernandezine Regulates Proliferation and Autophagy-Induced Apoptosis in Melanoma Cells” (J Nat Prod, 2022)
